In paper PMC12117711, “The contribution of cyclic imide stereoisomers on cereblon-dependent activity†” (Chemical Science, 2025):
Where “and” joins values, the source holds several entries; their conditions need not be identical. Equal entries are not always repeated. Where two headings read alike, the source gives them in different places. One block for each molecule: values may come before it. Non-standard residues stand in square brackets, D forms with d. Residues, ends and D or L forms follow the SMILES beside them. No end group written: not given here. *: point of attachment. epicN = C-terminal cyclic asparagine (aspartimide), (R)-epimer, epimer of cN, O=C1C[C@@H](N*)C(=O)N1; Aspartimide = O=C1C[C@H](N*)C(=O)N1; Fmoc = O=C(OCC1c2ccccc2-c2ccccc21)*; X3 = O=C1CC[C@@H](N*)C(=O)N1; X1 = O=C1C[C@@H](N*)C(=O)N1; X2 = O=C1CC[C@H](N*)C(=O)N1

Assays:
His6-CRBN/DDB1 = His6-CRBN/DDB1 (Homo sapiens, UniProt Q96SW2); assay: TR-FRET ligand displacement assay (Thal-FITC tracer) with His6-CRBN/DDB1; conditions: for pIC50 (M) / IC50: Thalidomide-FITC tracer 50 nM
[1] = target: T1, GSPT1-GFP in HEK293T cells (Homo sapiens, UniProt P15170+Q96SW2); assay: Degradation assay by flow cytometry, GSPT1-GFP; type: cell-based
T1 construct: expressed in transfected cells
Description: μg/mL), and 10% (v/v) FBS. […]
Degradation assay by flow cytometry
resuspension in DMEM +/– without phenol red. For IKZF1 degradation assay, propidium
equipped with a high throughput sampler.
using the BD FACSDiva software v9.1. For each experimental condition, the arithmetic mean
comparing compound treatment to DMSO control. […]
The same analysis was also applied to the (S)-
dependent activity, we adjusted the dose-response curves accordingly. Because dose-
within the error margins of the original curve.
squares F-test. This analysis determined whether there was a statistically significant
derived (S)-enantiomer. […]

[2] = Time-course study of racemization of lenalidomide, photo-lenalidomide and deuterated analogs in RPMI medium; type: physicochemical; conditions: RPMI media, 37 °C, read-out: t50%ee (racemization half-life) (converted)
Protocol: Time-course Study of Racemization of Lenalidomide and Photo-lenalidomide in RPMI Medium To a 12-well plate, 25 μL of the indicated compound (4 mM stock solution in methanol) was added and methanol was air-dried. 1 mL of RPMI medium was added to each well containing the compound and the plate was incubated at 37 °C, 5% CO2. At the indicated time point, RPMI medium containing the compound was collected in a 5-mL Eppendorf tube, and 4 mL of HPLC-grade ethyl acetate was added to each tube. The tube was shaken for 2 min to extract the compounds into ethyl acetate. After two layers were separated, 3 mL was taken from the organic layer and filtered through sodium sulfate to remove residual water. To the same 5-mL Eppendorf tube, 3 mL of HPLC-grade ethyl acetate was added to repeat the extraction step.
The taken organic layers were combined and concentrated in vacuo to dryness. The sample was resuspended in HPLC grade isopropanol and analyzed with Waters Prep 150 LC System equipped with a chiral column with conditions indicated in the synthetic procedure.
The experimental data obtained were fitted to the following rate equation for racemization:1 […]
Where Y represents the ratio of the other enantiomer formed via racemization with constraints 2 of Top = 1 (100% conversion) and Bottom = 0 (0% conversion), Krac is the rate constant for the racemization, and t is incubation time. For the sake of symmetry, rate constants are the […]
In the analysis of the above curve fitting model, parameter estimation for Krac was carried out using nonlinear least squares regression, employing the “curve_fit” function from the SciPy library in Python. This approach yielded an estimated value for Krac. To ascertain the precision of this estimation and to quantify the associated uncertainty, the standard error of Krac was calculated based on the diagonal elements of the covariance matrix returned by the curve fitting procedure. Subsequently, to construct a 95% confidence interval for the extrapolated racemization curves, the t-distribution was employed, considering the degrees of freedom (the number of data points minus the number of fitted parameters). The critical t-value for a 95% confidence level was determined by using the “t.ppf” function from the SciPy library in Python, and the confidence interval for Krac was then derived as the following equation: […]
Where tcritical is the critical t-value for a 95% confidence level and SE(Krac) is the standard error […]
The upper and lower bounds of this interval were further utilized to generate the corresponding confidence bounds for the curve, offering a visual representation of the uncertainty inherent in […]

His6-CRBN/DDB1 complex [3] = target: His6-CRBN/DDB1 complex (UniProt Q96SW2)
His6-CRBN/DDB1 complex [4] = target: T2, His6-CRBN/DDB1 complex (UniProt Q96SW2 1-442; Q16531 1-1140); assay: AlphaScreen or HTRF; competitive TR-FRET ligand displacement; peptide titrated against recombinant His6-CRBN/DDB1 (2.5 nM) with the tracer Thalidomide-FITC (50 nM); KD from IC50 by the correction factor 1.426 (tracer KD 2-site 117.3 nM); conditions: both partners purified
T2 construct: cereblon (CRBN), E3 ligase substrate adapter; DDB1, in complex with His6-CRBN; Column 'Protein' of S0003 says only 'CRBN'; the text and legends name His6-CRBN/DDB1 for this TR-FRET assay; also called cereblon; source: recombinant

[5] = KD, competitive TR-FRET, His6-CRBN/DDB1
[6] = HEK293T, 3 h, flow cytometry, read-out: DC50
[7] = KD (M), Protein CRBN, from IC50 with Correction Factor 1.43
[8] = IC50 (M), Protein CRBN, protein […]
[9] = IC50 (nM), Protein CRBN, protein […]
[10] = KD (nM), Protein CRBN, from IC50 with Correction Factor 1.43
[11] = Protein CRBN, from IC50 with Correction Factor 1.43

Molecule: Cc1ccc(NC(=O)NCc2ccc3c(c2)CN(C2CCC(=O)NC2=O)C3=O)cc1Cl (racemic) [rac-CC885, CC885, reference compound]
- Kd (His6-CRBN/DDB1; [5]): ≤ 4e-09 M

Molecule: [2H]C1([2H])CC([2H])(N2Cc3cc(CNC(=O)Nc4ccc(C)c(Cl)c4)ccc3C2=O)C(=O)NC1=O (racemic) [rac-CC885-d3]
- Kd (His6-CRBN/DDB1; [5]): ≤ 4e-09 M
- DC50 [1, 6]: ≤ 2 nM

Molecule: [2H]C1([2H])CC([2H])(N2Cc3c(N)cccc3C2=O)C(=O)NC1=O (racemic) [rac-Len-d3]
- half-life at 100 µM [2]: 24 to 25 h

Molecule: [2H]C1([2H])C[C@@]([2H])(N2Cc3cc(CNC(=O)Nc4ccc(C)c(Cl)c4)ccc3C2=O)C(=O)NC1=O [(R)-CC885-d3]
- Kd (His6-CRBN/DDB1; [5]): 4.01e-07 M
- DC50 [1, 6]: 25 nM

Molecule: O=C(CNC(=O)CNC(=O)OCC1c2ccccc2-c2ccccc21)NCC(=O)N[C@@H](Cc1ccccc1)C(=O)N[C@H]1CCC(=O)NC1=O [Fmoc-GGGFcQ] (Fmoc-GGGF-X2)
- IC50 (His6-CRBN/DDB1; [8]): 1.28e-07 M
- Kd (His6-CRBN/DDB1; [7]): 8.94e-08 M

Molecule: O=C(CNC(=O)CNC(=O)OCC1c2ccccc2-c2ccccc21)NCC(=O)N[C@@H](Cc1ccccc1)C(=O)N[C@@H]1CC(=O)NC1=O [Fmoc-GGGFepicN] (Fmoc-GGGF-X1)
- IC50 (His6-CRBN/DDB1; [9]): 4.08e-06 M
- Kd (His6-CRBN/DDB1; [7]): 2.86e-06 M
- Kd (His6-CRBN/DDB1; [5]): 2.86e-06 M and 2.87e-06 M
- IC50 (His6-CRBN/DDB1; pIC50 (M), Protein CRBN): 4.07e-06 M
- Kd (His6-CRBN/DDB1; pKD (M), Protein CRBN, from IC50 with Correction Factor 1.43): 2.88e-06 M

Molecule: O=C(CNC(=O)CNC(=O)OCC1c2ccccc2-c2ccccc21)NCC(=O)N[C@@H](Cc1ccccc1)C(=O)N[C@@H]1CCC(=O)NC1=O [Fmoc-GGGFepicQ] (Fmoc-GGGF-X3)
- IC50 (His6-CRBN/DDB1; [8]): 7.69e-07 M
- Kd (His6-CRBN/DDB1; [7]): 5.39e-07 M

Molecule: C[C@H](NC(=O)CNC(=O)CNC(=O)CN)C(=O)N[C@@H]1CC(=O)NC1=O [GGGAepicN] (H-GGGA-X1)
- IC50 (His6-CRBN/DDB1; [8]): 1.12e-05 M

Molecule: Cc1sc2c(c1C)C(c1ccc(Cl)cc1)=N[C@@H](CC(=O)NCCCCCCCCC(=O)N[C@@H](Cc1ccccc1)C(=O)N[C@H]1CCC(=O)NC1=O)c1nnc(C)n1-2 [JQ1-FcQ]
- pIC50 (M) (His6-CRBN/DDB1; Protein CRBN): 6.86 M
- IC50 (His6-CRBN/DDB1; Protein CRBN, protein […]): 1.38e-07 M
- Kd (His6-CRBN/DDB1; [11]): 9.65e-08 M and 9.7e-08 M
- pKD (M) (His6-CRBN/DDB1; [11]): 7.02 M

Molecule: GFP-FepicN
- in vitro monoubiquitination with K0-ubiquitin mediated by the CRL4^CRBN complex, fold over methylated GFP-FcQ (GFP-FcQMe); did not reach statistical significance (His6-CRBN/DDB1 complex [3]): 1.3 fold

B1: Fmoc-GGGFcN (peptide)
peptide: Fmoc-GGGF[Aspartimide]
SMILES: O=C(CNC(=O)CNC(=O)OCC1c2ccccc2-c2ccccc21)NCC(=O)N[C@@H](Cc1ccccc1)C(=O)N[C@H]1CC(=O)NC1=O
notes: pentapeptide; the C-terminal N is cyclised to the C-terminal cyclic imide (aspartimide); source: synthetic peptide
- IC50 (His6-CRBN/DDB1 complex [4]): 52.4 nM

B2: GGGAcN (peptide)
peptide: GGGA[Aspartimide]
notes: pentapeptide; the C-terminal N is cyclised to the C-terminal cyclic imide (aspartimide); The sheet prints no Fmoc for this peptide; also called pentapeptide bearing AcN; source: synthetic peptide
- Kd (His6-CRBN/DDB1 complex [4]): 242 nM

Results, then the molecule that gave them:

- pIC50 (M) (His6-CRBN/DDB1; Protein CRBN): 8.29 M
Molecule: Cc1ccc(NC(=O)NCc2ccc3c(c2)CN(C2CCC(=O)NC2=O)C3=O)cc1Cl (racemic) [rac-CC-885]

- half-life at 100 µM [2]: 4.3 h
Molecule: Nc1cccc2c1CN([C@@H]1CCC(=O)NC1=O)C2=O [(R)-lenalidomide]

- Kd (His6-CRBN/DDB1; [5]): ≤ 3e-09 M
- Kd (His6-CRBN/DDB1; predicted KD of the (S)-stereoisomer, ligand displacement assay adjusted for (S)-stereoisomer, (S)-stereoisomer in the (S)-sample, corrected for racemization): 3.2e-09 ± 1e-10 M
- DC50 ([1]; (S) in the (S)-sample, read-out: predicted DC50 of the (S)-stereoisomer, adjusted for (S)-stereoisomer): 1.2 ± 0.3 nM
- DC50 [1, 6]: ≤ 2 nM
Molecule: [2H]C1([2H])C[C@]([2H])(N2Cc3cc(CNC(=O)Nc4ccc(C)c(Cl)c4)ccc3C2=O)C(=O)NC1=O [(S)-CC885-d3]

- half-life at 100 µM [2]: 4.2 h
Molecule: Nc1cccc2c1CN([C@H]1CCC(=O)NC1=O)C2=O [(S)-lenalidomide]

- Kd (His6-CRBN/DDB1; [7]): 3.67e-08 M
Molecule: O=C(CNC(=O)CNC(=O)OCC1c2ccccc2-c2ccccc21)NCC(=O)N[C@@H](Cc1ccccc1)C(=O)N[C@H]1CC(=O)NC1=O [Fmoc-GGGFcN] (Fmoc-GGGF-Aspartimide)

- IC50 (His6-CRBN/DDB1; [8]): 3.44e-07 M
- Kd (His6-CRBN/DDB1; [7]): 2.42e-07 M
- Kd (His6-CRBN/DDB1; [10]): 2.42e-07 M
Molecule: C[C@H](NC(=O)CNC(=O)CNC(=O)CN)C(=O)N[C@H]1CC(=O)NC1=O [GGGAcN] (H-GGGA-Aspartimide)

- pIC50 (M) (His6-CRBN/DDB1; Protein CRBN): 7.42 M
- IC50 (His6-CRBN/DDB1; Protein CRBN, protein […]): 3.8e-08 M
- Kd (His6-CRBN/DDB1; [11]): 2.66e-08 M and 2.7e-08 M
- pKD (M) (His6-CRBN/DDB1; [11]): 7.57 M
Molecule: Cc1sc2c(c1C)C(c1ccc(Cl)cc1)=N[C@@H](CC(=O)NCCCCCCCCC(=O)N[C@@H](Cc1ccccc1)C(=O)N[C@H]1CC(=O)NC1=O)c1nnc(C)n1-2 [JQ1-FcN]

- IC50 (His6-CRBN/DDB1; [8]): 1.53e-05 M
- IC50 (His6-CRBN/DDB1; [9]): 1.53e-05 M
- Kd (His6-CRBN/DDB1; [7]): 1.07e-05 M
- Kd (His6-CRBN/DDB1; [10]): 1.07e-05 M
- Kd (His6-CRBN/DDB1; [5]): 1.07e-05 M
Molecule: CN1C(=O)CCC(N2Cc3c(N)cccc3C2=O)C1=O (stereo not drawn) [Me-Len, reference compound]

- half-life at 100 µM [2]: 4.2 to 4.3 h
Molecule: Nc1cccc2c1CN(C1CCC(=O)NC1=O)C2=O (stereo not drawn) [lenalidomide]

- in vitro monoubiquitination with K0-ubiquitin mediated by the CRL4^CRBN complex, fold over methylated GFP-FcQ (GFP-FcQMe) (His6-CRBN/DDB1 complex [3]): 7.1 fold
Molecule: GFP-FcN

- in vitro monoubiquitination with K0-ubiquitin mediated by the CRL4^CRBN complex, fold over methylated GFP-FcQ (GFP-FcQMe) (His6-CRBN/DDB1 complex [3]): 4.8 fold
Molecule: GFP-FcQ

- in vitro monoubiquitination with K0-ubiquitin mediated by the CRL4^CRBN complex, fold over methylated GFP-FcQ (GFP-FcQMe) (His6-CRBN/DDB1 complex [3]): 2.4 fold
Molecule: GFP-FepicQ

- Kd (His6-CRBN/DDB1 complex [4]): 7850 nM
B3: GGGAepicN (peptide)
peptide: GGGA[epicN]
notes: pentapeptide; the C-terminal N is cyclised to the aspartimide and is the epimer of that in GGGAcN; The sheet prints no Fmoc for this peptide; also called pentapeptide bearing AepicN; source: synthetic peptide
